Molecules are shown by their SMILES. Converted amounts (≈) assume the structure as drawn. Residues, ends and D or L forms follow the SMILES beside them.

Data set [1] deals with E. coli ATCC 25922 (control strain). The format is cell-based, Escherichia coli. The following applies: ATCC 25922. The protocol:
(§1) Both antibacterial and antifungal MIC assays were performed by a broth microdilution plate based method as per CLSI guidelines for antimicrobial susceptibility testing.[53],[54] […] Full assay details are included in the Supporting Information with a full list of strains tested in Table S1.
(§2) Antibacterial assay (Minimum Inhibitory Concentration [MIC]).
(§3) MIC assay was performed by a broth microdilution plate based method as per CLSI guidelines for antimicrobial susceptibility testing of aerobic bacteria.1 Compounds were prepared at 1.28 mg/mL solution in water. The tested strains, Table S1, were cultured in Luria broth (LB) (In Vitro Technologies, USB75852), at 37 °C overnight. A sample of culture was then diluted 40Pfold in fresh Muller Hinton broth (MHB) (Bacto laboratories, 211443) and incubated at 37 °C for 1.5P2 h. The compounds were serially diluted twoPfold across the wells, with compound concentrations ranging from 0.015 µg/mL to 512 µg/mL, plated in duplicate. The resultant midPlog phase cultures were diluted to the final concentration of 1×10^6 CFU/mL, then 50 µL was added to each well of the compoundP containing 96Pwell plates (Corning 3641, NonPbinding Surface [NBS]), giving a final compound concentration range of 0.008 µg/mL to 256 µg/mL and 5x10^5 CFU/mL. All the plates were covered and incubated at 37 °C for 18 h. MICs were determined visually, being defined as the lowest concentration showing no visible growth. Resazurin was added at 0.001% final concentration to each well and incubated for 2 h before MICs were rePread for confirmation using the colour change from blue to pink to indicate wells containing viable cells. The resazurin assay was added in some wells where some form of precipitate was present in otherwise clear wells, making it difficult to ascertain which wells had visible […]
(§4) Antifungal assay (Minimum Inhibitory Concentration [MIC]). MIC assay was performed by a broth microdilution plate based method as per CLSI guidelines for antimicrobial susceptibility testing.2 Fungi strains, Table S1, were cultured for 3 days on Yeast ExtractPPeptone Dextrose (YPD) (SigmaPAldrich, Y1500) agar at 30 °C. A yeast suspension of 1x10^6 to 5x10^6 CFU/mL was prepared from five colonies. These stock suspensions were diluted with Yeast Nitrogen Base (YNB) (Becton Dickinson, 233520) broth to a final concentration of 2.5 ×10^3 CFU/mL. All samples, compounds and standards were plated in 96Pwell plates (Corning 3641, NonPbinding Surface [NBS]), by adding 10 µL of 1.28 mg/mL stock solution to each well and 90 µL of media. Then, the samples were serial diluted (1:2) in 12 concentrations across the plate. The standard antifungal ranged from 256

Data set [2] relates to E. coli ATCC 700926 (K12). It counts as cell-based, Escherichia coli. The following applies: ATCC 700926. The protocol:
as §1, §2, §3, §4

In the next data set the test system is E. coli MB 4902 (ΔlpxC). The format is cell-based, Escherichia coli. The following applies: n = 4. The protocol: as §1, §2, §3, §4
The next data set relates to K. pneumoniae ATCC 13883. The format is cell-based, Klebsiella pneumoniae. The following applies: ATCC 13883. The protocol:
as §1, §2, §3, §4

Data set [3] concerns K. pneumoniae ATCC 700603 (MDR). It counts as cell-based, Klebsiella pneumoniae. The following applies: n = 4. The protocol: as §1, §2, §3, §4
The test system of data set [4] is K. pneumoniae BAA 2146 (NDM-1 pos). The format is cell-based, Klebsiella pneumoniae. The following applies: n = 4. The protocol:
as §1, §2, §3, §4

In data set [5] the test system is C. neoformans ATCC 208821. In words: microbe, parasite or virus in culture. The format is cell-based, Cryptococcus neoformans. The protocol:
as §1, §2, §3
as §4, with “256 […]” for “256”
µg/mL to 0.12 µg/mL and compounds from 128 µg/mL to 0.06 µg/mL with final volumes of 50 µL per well, plated in duplicate. Then, 50 µL of the fungi suspension that was previously prepared in YNB broth to the final concentration of 2.5×10^3 CFU/mL, was added to each well of the compoundPcontaining plates, giving a final standard compound concentration range of 128 µg/mL to 0.06 µg/mL and tested compound from 64 µg/mL to 0.03 µg/mL. Plates were covered and incubated at 35 °C for 24 h. Candida albicans MICs were determined by measuring the absorbance at OD530. For Cryptococcus neoformans 10 µL of 0.06 % resazurin were added to the 24 h incubated plates. Then, these plates were incubated for another 3 h.
Cryptococcus neoformans MICs were determined by measuring the absorbance at OD570P600. […]

The conditions of data set [6]: hemolysis (%) at 300 μg/mL, human erythrocytes, 3 h, relative to 100% hemolysis by 1% Triton X-100.

With `CC(C)[C@@H]1NC(=O)[C@H](CCCNC(=N)N)NC(=O)[C@H](Cc2ccccc2)NC(=O)[C@@H](NC(=O)[C@H](Cc2c[nH]c3ccccc23)NC(=O)[C@H](CCCNC(=N)N)NC(=O)[C@@H](N)CCCNC(=N)N)CSSC[C@@H](C(=O)N[C@@H](CCCNC(=N)N)C(N)=O)NC(=O)[C@H](CCCCN)NC(=O)[C@H](CCCNC(=N)N)NC(=O)[C@H](Cc2ccc(O)cc2)NC(=O)[C@@H]2CSSC[C@H](NC1=O)C(=O)N[C@@H](Cc1ccc(O)cc1)C(=O)N[C@@H](CCCNC(=N)N)C(=O)NCC(=O)N[C@@H](Cc1ccccc1)C(=O)N2` [polyphemusin-1] (HELM PEPTIDE1{R.R.W.C.F.R.V.C.Y.R.G.F.C.Y.R.K.C.R.[am]}$PEPTIDE1,PEPTIDE1,4:R3-17:R3|PEPTIDE1,PEPTIDE1,8:R3-13:R3$$$V2.0), the MIC in data set [1] came out at 0.5 µg/mL (≈ 0.204 µM); in data set [2] it was 0.06 µg/mL (≈ 0.0244 µM); in the data set with E. coli MB 4902 (ΔlpxC), 0.03 µg/mL (≈ 0.0122 µM); against K. pneumoniae ATCC 13883 it was 0.5 µg/mL (≈ 0.204 µM); in data set [3], 1 µg/mL (≈ 0.407 µM); in data set [4], 2 µg/mL (≈ 0.815 µM). The compound further showed an MIC in data set [5] (ATCC 208821) of 0.06 µg/mL (≈ 0.0244 µM). In data set [6], this compound showed a hemolysis of around 30%.
Turning to `CC[C@H](C)[C@H](NC(=O)[C@@H](NC(=O)[C@@H]1CCCN1C(=O)[C@@H](NC(=O)[C@@H]1CCCN1C(=O)[C@H](CCCCN)NC(=O)[C@H](CCCCN)NC(=O)[C@H](CO)NC(=O)CN)C(C)C)[C@@H](C)CC)C(=O)N[C@@H](Cc1ccc(O)cc1)C(=O)N[C@H]1CSSC[C@@H](C(=O)N[C@@H](CCC(N)=O)C(=O)N[C@@H](CCCNC(=N)N)C(=O)N[C@@H](CCSC)C(N)=O)NC(=O)[C@H](CCCCN)NC(=O)CNC(=O)[C@H]([C@@H](C)O)NC(=O)[C@H](CCCNC(=N)N)NC(=O)[C@H](CCCNC(=N)N)NC(=O)[C@H](CC(N)=O)NC1=O` [thanatin], the MIC worked out at 8 µg/mL (≈ 3.29 µM) in data set [1]; 8 µg/mL (≈ 3.29 µM) in data set [2]; 2 µg/mL (≈ 0.822 µM) in the data set with E. coli MB 4902 (ΔlpxC); 8 µg/mL (≈ 3.29 µM) in the data set with K. pneumoniae ATCC 13883; 64 µg/mL (≈ 26.3 µM) in data set [3]; 256 µg/mL (≈ 105 µM) in data set [4]. Besides, in data set [5] (C. neoformans ATCC 208821, n = 4), the MIC was determined as 64 µg/mL (≈ 26.3 µM). Also, the hemolysis in data set [6] amounted to 1.3 ± 0.4%.
`[H][C@]12CSSC[C@]([H])(NC(=O)[C@]([H])([C@@H](C)CC)NC(=O)CNC(=O)[C@H](CCCNC(=N)N)NC(=O)[C@H](Cc3ccc(O)cc3)NC1=O)C(=O)N[C@@H](Cc1ccc(O)cc1)C(=O)N[C@@H](CCCNC(=N)N)C(=O)N[C@@H](CCCNC(=N)N)C(=O)N[C@H](C(=O)N[C@@H](CCCNC(=N)N)C(N)=O)CSSC[C@H](NC(=O)[C@H](Cc1c[nH]c3ccccc13)NC(=O)[C@@H](N)CCCCN)C(=O)N[C@@H](Cc1ccccc1)C(=O)N[C@@H](CCCNC(=N)N)C(=O)N[C@@H](C(C)C)C(=O)N2` [tachyplesin-1] (HELM PEPTIDE1{K.W.C.F.R.V.C.Y.R.G.I.C.Y.R.R.C.R.[am]}$PEPTIDE1,PEPTIDE1,3:R3-16:R3|PEPTIDE1,PEPTIDE1,7:R3-12:R3$$$V2.0): the MIC in data set [1] came to 0.06 µg/mL (≈ 0.0265 µM); in data set [2], 0.03 µg/mL (≈ 0.0133 µM); in the data set on E. coli MB 4902 (ΔlpxC) it was 0.016 µg/mL (≈ 0.00707 µM); in the data set with K. pneumoniae ATCC 13883 it was 0.125 µg/mL (≈ 0.0552 µM); in data set [3], 0.25 µg/mL (≈ 0.11 µM); in data set [4], 0.25 µg/mL (≈ 0.11 µM). For the same compound, the MIC in data set [5] (ATCC 208821) stood at 0.125 µg/mL (≈ 0.0552 µM). In data set [6], this compound displayed a hemolysis of around 30%.
In the case of `CC(C)[C@@H]1NC(=O)CNC(=O)[C@H](CC(N)=O)NC(=O)[C@H](CCCNC(=N)N)NC(=O)[C@H](Cc2ccc(O)cc2)NC(=O)[C@H](C(C)C)NC(=O)[C@@H]2CSSC[C@H](NC(=O)[C@H](C(C)C)NC(=O)[C@H](CCCNC(=N)N)NC1=O)C(=O)N[C@@H](Cc1ccc(O)cc1)C(=O)N[C@@H](CCCNC(=N)N)C(=O)N[C@@H](CCCNC(=N)N)C(=O)N[C@H](C(=O)N[C@@H](CC(N)=O)C(=O)O)CSSC[C@H](NC(=O)[C@H](Cc1ccccc1)NC(=O)CN)C(=O)N[C@@H](Cc1c[nH]c3ccccc13)C(=O)N[C@@H](Cc1ccc(O)cc1)C(=O)N[C@@H](C(C)C)C(=O)N2` [arenicin-3] (HELM PEPTIDE1{G.F.C.W.Y.V.C.V.Y.R.N.G.V.R.V.C.Y.R.R.C.N}$PEPTIDE1,PEPTIDE1,3:R3-20:R3|PEPTIDE1,PEPTIDE1,7:R3-16:R3$$$V2.0), the MIC worked out at 0.5 µg/mL (≈ 0.191 µM) in data set [1]; 0.25 µg/mL (≈ 0.0957 µM) in data set [2]; 0.125 µg/mL (≈ 0.0478 µM) in the data set on E. coli MB 4902 (ΔlpxC); 1 µg/mL (≈ 0.383 µM) in the data set on K. pneumoniae ATCC 13883; 4 µg/mL (≈ 1.53 µM) in data set [3]; 4 µg/mL (≈ 1.53 µM) in data set [4]. For the same compound, the MIC in data set [5] (ATCC 208821) is 8 µg/mL (≈ 3.06 µM). In data set [6], this compound registered a hemolysis of 4%.
